Converted amounts (≈) assume the structure as drawn. The source made the active and inactive calls. No cut-off for these calls is given here.
Assays:
[1] = Induction of apoptosis in human GSC18 cells assessed as early apoptotic cells at 1 ug/ml after 8 hrs by Annexin V-FITC/propidium iodide staining based flow cytometric method (reference value: 7.73%); format: functional
GSC12 = assay: Growth inhibition of human GSC12 cells at 10 ug/ml; format: functional, cell-based
GSC3 [2] = assay: Cytotoxicity against human GSC3 cells assessed as cell shrinkage at 5 ug/ml measured after 8 hrs; format: functional, cell-based
[3] = Induction of apoptosis in human GSC18 cells assessed as late apoptotic cells at 5 ug/ml after 8 hrs by Annexin V-FITC/propidium iodide staining based flow cytometric method (reference value: 2.54%); format: functional
[4] = Induction of apoptosis in human GSC3 cells assessed as viable cells at 2 ug/ml after 8 hrs by Annexin V-FITC/propidium iodide staining based flow cytometric method (reference value: 98.8%); format: functional; settings: GSC-3, 8 h, read-out: Activity
GSC18 [5] = assay: Induction of apoptosis in human GSC18 cells assessed as increase in cleaved caspase-3 at 5 ug/ml after 8 hrs by DAPI staining based immunofluorescence assay; format: functional, cell-based
GSC18 [6] = assay: Inhibition of colony formation in human GSC18 cells assessed as clonal sphere damage at 5 ug/ml after 10 days by crystal violet staining based assay; format: functional, cell-based
GSC18 [7] = assay: Cytotoxicity against human GSC18 cells assessed as cell shrinkage at 5 ug/ml measured after 8 hrs; format: functional, cell-based
[8] = Induction of apoptosis in human GSC18 cells assessed as late apoptotic cells at 1 ug/ml after 8 hrs by Annexin V-FITC/propidium iodide staining based flow cytometric method (reference value: 2.54%); format: functional
[9] = Induction of apoptosis in human GSC18 cells assessed as viable cells at 1 ug/ml after 8 hrs by Annexin V-FITC/propidium iodide staining based flow cytometric method (reference value: 85.5%); format: functional; settings: GSC18, 8 h, read-out: Activity
[10] = Induction of apoptosis in human GSC3 cells assessed as late apoptotic cells at 1 ug/ml after 8 hrs by Annexin V-FITC/propidium iodide staining based flow cytometric method (reference value: 0.373%); format: functional
GSC3 [11] = assay: Cytotoxicity against human GSC3 cells assessed as cell detachment at 5 ug/ml measured after 8 hrs; format: functional, cell-based
[12] = Induction of apoptosis in human GSC3 cells assessed as late apoptotic cells at 2 ug/ml after 8 hrs by Annexin V-FITC/propidium iodide staining based flow cytometric method (reference value: 0.373%); format: functional
[13] = Induction of apoptosis in human GSC18 cells assessed as late apoptotic cells at 5 ug/ml after 8 hrs by Annexin V-FITC/propidium iodide staining based flow cytometric method (reference value: 4.25%); format: functional
[14] = Induction of apoptosis in human GSC3 cells assessed as late apoptotic cells at 1 ug/ml after 8 hrs by Annexin V-FITC/propidium iodide staining based flow cytometric method (reference value: 0.603%); format: functional
[15] = Induction of apoptosis in human GSC3 cells assessed as viable cells at 1 ug/ml after 8 hrs by Annexin V-FITC/propidium iodide staining based flow cytometric method (reference value: 98.8%); format: functional; settings: GSC-3, 8 h, read-out: Activity
GSC18 [16] = assay: Growth inhibition of human GSC18 cells at 10 ug/ml; format: functional, cell-based
[17] = Induction of apoptosis in human GSC18 cells assessed as viable cells at 2 ug/ml after 8 hrs by Annexin V-FITC/propidium iodide staining based flow cytometric method (reference value: 85.5%); format: functional; settings: GSC18, 8 h, read-out: Activity
[18] = Induction of apoptosis in human GSC18 cells assessed as late apoptotic cells at 1 ug/ml after 8 hrs by Annexin V-FITC/propidium iodide staining based flow cytometric method (reference value: 4.25%); format: functional
[19] = Induction of apoptosis in human GSC3 cells assessed as viable cells at 5 ug/ml after 8 hrs by Annexin V-FITC/propidium iodide staining based flow cytometric method (reference value: 98.8%); format: functional; settings: GSC-3, 8 h, read-out: Activity
[20] = Induction of apoptosis in human GSC3 cells assessed as early apoptotic cells at 5 ug/ml after 8 hrs by Annexin V-FITC/propidium iodide staining based flow cytometric method (reference value: 0.186%); format: functional
HEK-293T = assay: Cytotoxicity against human 293T cells after 72 hrs by MTS assay; format: cell-based
GSC18 [21] = assay: Inhibition of colony formation in human GSC18 cells assessed as reduction in numbers of clonal sphere at 5 ug/ml after 10 days by crystal violet staining based assay; format: functional, cell-based
GSC18 [22] = assay: Cytotoxicity against human GSC18 cells assessed as suppression of DNA synthesis at 5 ug/ml after 8 hrs by BrdU/DAPI staining based immunofluorescence assay; format: functional, cell-based
[23] = Induction of apoptosis in human GSC3 cells assessed as early apoptotic cells at 2 ug/ml after 8 hrs by Annexin V-FITC/propidium iodide staining based flow cytometric method (reference value: 0.186%); format: functional
[24] = Cytotoxicity against human GSC12 cells after 72 hrs by MTS assay; format: functional, cell-based; settings: GSC12, 72 h
[25] = Induction of apoptosis in human GSC3 cells assessed as early apoptotic cells at 1 ug/ml after 8 hrs by Annexin V-FITC/propidium iodide staining based flow cytometric method (reference value: 0.186%); format: functional
GSC3 [26] = assay: Inhibition of colony formation in human GSC3 cells assessed as reduction in numbers of clonal sphere at 5 ug/ml after 10 days by crystal violet staining based assay; format: functional, cell-based
[27] = Induction of apoptosis in human GSC18 cells assessed as late apoptotic cells at 2 ug/ml after 8 hrs by Annexin V-FITC/propidium iodide staining based flow cytometric method (reference value: 4.25%); format: functional
[28] = Cytotoxicity against human GSC18 cells after 72 hrs by MTS assay; format: functional, cell-based; settings: GSC18, 72 h
[29] = Induction of apoptosis in human GSC3 cells assessed as late apoptotic cells at 2 ug/ml after 8 hrs by Annexin V-FITC/propidium iodide staining based flow cytometric method (reference value: 0.603%); format: functional
GSC3 [30] = assay: Growth inhibition of human GSC3 cells at 10 ug/ml; format: functional, cell-based
[31] = Cytotoxicity against human GSC3 cells after 72 hrs by MTS assay; format: functional, cell-based; settings: GSC-3, 72 h
GSC18 [32] = assay: Cytotoxicity against human GSC18 cells assessed as cell rounding at 5 ug/ml measured after 8 hrs; format: functional, cell-based
[33] = Induction of apoptosis in human GSC3 cells assessed as late apoptotic cells at 5 ug/ml after 8 hrs by Annexin V-FITC/propidium iodide staining based flow cytometric method (reference value: 0.373%); format: functional
GSC3 [34] = assay: Cytotoxicity against human GSC3 cells assessed as suppression of DNA synthesis at 5 ug/ml after 8 hrs by BrdU/DAPI staining based immunofluorescence assay; format: functional, cell-based
[35] = Induction of apoptosis in human GSC18 cells assessed as late apoptotic cells at 2 ug/ml after 8 hrs by Annexin V-FITC/propidium iodide staining based flow cytometric method (reference value: 2.54%); format: functional
GSC3 [36] = assay: Cytotoxicity against human GSC3 cells assessed as cell rounding at 5 ug/ml measured after 8 hrs; format: functional, cell-based
[37] = Cytotoxicity against human HAC cells after 72 hrs by MTS assay; format: cell-based
GSC18 [38] = assay: Cytotoxicity against human GSC18 cells assessed as cell detachment at 5 ug/ml measured after 8 hrs; format: functional, cell-based
[39] = Induction of apoptosis in human GSC3 cells assessed as late apoptotic cells at 5 ug/ml after 8 hrs by Annexin V-FITC/propidium iodide staining based flow cytometric method (reference value: 0.603%); format: functional
GSC3 [40] = assay: Inhibition of colony formation in human GSC3 cells assessed as clonal sphere damage at 5 ug/ml after 10 days by crystal violet staining based assay; format: functional, cell-based
[41] = Induction of apoptosis in human GSC18 cells assessed as early apoptotic cells at 2 ug/ml after 8 hrs by Annexin V-FITC/propidium iodide staining based flow cytometric method (reference value: 7.73%); format: functional
GSC3 [42] = assay: Induction of apoptosis in human GSC3 cells assessed as increase in cleaved caspase-3 at 5 ug/ml after 8 hrs by DAPI staining based immunofluorescence assay; format: functional, cell-based
[43] = Induction of apoptosis in human GSC18 cells assessed as early apoptotic cells at 5 ug/ml after 8 hrs by Annexin V-FITC/propidium iodide staining based flow cytometric method (reference value: 7.73%); format: functional
[44] = Induction of apoptosis in human GSC18 cells assessed as viable cells at 5 ug/ml after 8 hrs by Annexin V-FITC/propidium iodide staining based flow cytometric method (reference value: 85.5%); format: functional; settings: GSC18, 8 h, read-out: Activity

C=C1C(=O)O[C@@H]2/C=C(\C)CCC/C(C)=C/C[C@@H]12
Activity [1]: 1.54% | growth inhibition (GI) (GSC12): Active | Activity (GSC3 [2]): Active | Activity [3]: 35.2% | viability at 2 µg/mL [4]: 91.4% | Activity (GSC18 [5]): Active | inhibition (GSC18 [6]): Active | Activity (GSC18 [7]): Active | Activity [8]: 30% | viability at 1 µg/mL [9]: 51.2% | Activity [10]: 4.3% | Activity (GSC3 [11]): Active | Activity [12]: 4% | Activity [13]: 21.1% | Activity [14]: 0.942% | viability at 1 µg/mL [15]: 94.7% | growth inhibition (GI) (GSC18 [16]): Active | viability at 2 µg/mL [17]: 57.5% | Activity [18]: 17.3% | viability at 5 µg/mL [19]: 19.2% | Activity [20]: 3.98% | IC50 (HEK-293T): 7.61 µg/mL (≈ 32.8 µM) | inhibition (GSC18 [21]): Active | Activity (GSC18 [22]): Active | Activity [23]: 1.06% | IC50 [24]: 2.61 µg/mL (≈ 11.2 µM) | Activity [25]: 0.096% | inhibition (GSC3 [26]): Active | Activity [27]: 22.1% | IC50 [28]: 1.07 µg/mL (≈ 4.61 µM) | Activity [29]: 3.53% | growth inhibition (GI) (GSC3 [30]): Active | IC50 [31]: 2.8 µg/mL (≈ 12.1 µM) | Activity (GSC18 [32]): Active | Activity [33]: 22.4% | Activity (GSC3 [34]): Active | Activity [35]: 17.1% | Activity (GSC3 [36]): Active | IC50 [37]: 7.42 µg/mL (≈ 31.9 µM) | Activity (GSC18 [38]): Active | Activity [39]: 54.3% | inhibition (GSC3 [40]): Active | Activity [41]: 3.28% | Activity (GSC3 [42]): Active | Activity [43]: 4.1% | viability at 5 µg/mL [44]: 39.6%
